Source: PMC4434464 (ACS Medicinal Chemistry Letters, 2015)
“And” between values parts separate entries of the source, which are not always exact repeats. Identical values can stand only once. “Also recorded” adds a separate entry of the source.

Legend:
[1] = liver microsome clearance, human; type: in vitro ADME; conditions: human liver microsomes
[2] = liver microsome clearance, rat; type: in vitro ADME; conditions: rat liver microsomes
[3] = liver microsome clearance, mouse; type: in vitro ADME; conditions: mouse liver microsomes
[4] = plasma protein binding, equilibrium dialysis, human; type: in vitro ADME
[5] = plasma protein binding, equilibrium dialysis, rat; type: in vitro ADME
[6] = plasma protein binding, equilibrium dialysis, mouse; type: in vitro ADME
WSU-DLCL2 cells [7] = assay: predicted efficacious plasma exposure; conditions: human; plasma protein binding corrected LCC
[8] = single dose oral PK in SCID mice; type: in vivo
[9] = 7-day BID PK study, plasma exposure and tolerability; type: in vivo, mouse
[10] = test system: H3K27 methylation in bone marrow; assay: 7-day BID PD, H3K27 methylation in bone marrow; type: in vivo, mouse; conditions: 500 mg/kg BID, end of day 7
[11] = rat oral PK of D-tartrate salt; type: in vivo; conditions: for time above LCC: p.o., D-tartrate salt; for AUC(0-inf) / Cmax / Tmax: plasma, po
[12] = test system: subcutaneous EZH2 mutant KARPAS-422 human DLBCL xenografts; assay: KARPAS-422 xenograft antitumor activity; type: in vivo, SCID mice; conditions: 250 and 500 mg/kg BID orally, 21 days
[13] = test system: H3K27 methyl mark in tumor tissue; assay: PD in KARPAS-422 tumor samples, H3K27 methyl mark; type: in vivo, SCID mice; conditions: day 7, 250 and 500 mg/kg, over the 12 h time-course
[14] = plasma exposure in the KARPAS-422 xenograft study; type: in vivo, SCID mice; conditions: 250 mg/kg BID, D-tartrate salt, day 7
WSU-DLCL2 cells [15] = assay: 11-day proliferation assay, LCC; conditions: n = 4
[16] = test system: H3K27me3 in WSU-DLCL2 cells; assay: ELISA of cellular H3K27me3 methyl mark reduction; conditions: read-out: ELISA H3K27me3 IC50; WSU-DLCL2 (Y641F mutant-bearing) cells; n = 20

SMILES: CCN(c1cc(C#CCN2CCOCC2)cc(C(=O)NCc2c(C)cc(C)[nH]c2=O)c1C)[C@H]1CC[C@H](N(C)CCOC)CC1 [EPZ011989, N-((4,6-Dimethyl-2-oxo-1,2-dihydropyridin-3-yl)methyl)-3-(ethyl((trans)-4-((2-methoxyethyl)(methyl)amino)cyclohexyl)amino)-2-methyl-5-(3-morpholinoprop-1-yn-1-yl)benzamide]
- percent hepatic extraction (%Eh) [1]: 29%
- percent hepatic extraction (%Eh) [2]: < 14%
- percent hepatic extraction (%Eh) [3]: < 11%
- fraction unbound [4]: 0.97 ± 0.03
- fraction unbound [5]: 0.91 ± 0.06
- fraction unbound [6]: 0.8 ± 0.11
- predicted efficacious plasma exposure (WSU-DLCL2 cells [7]): 214 nM and 130 ng/mL
- coverage over the LCC (time) ([8]; single oral dose 250 mg/kg): approximately 8 h
- coverage over the LCC (time) ([8]; single oral dose 500 mg/kg): approximately 8 h
- dose that achieves complete coverage over the predicted efficacious plasma level ([9]; 7-day BID study): 500 mg/kg BID
- tolerability ([9]; 125, 250, 500, 750 and 1000 mg/kg BID, 7 days): well tolerated
- H3K27 methyl mark in bone marrow [10]: complete ablation of the methyl mark
- time above LCC ([11]; 30 mg/kg): 4 h
- time above LCC ([11]; 100 mg/kg): 8 h
- AUC(0-inf) ([11]; 30 mg/kg): 970 ng·h/mL
- Cmax ([11]; 30 mg/kg): 240 ng/mL
- Tmax ([11]; 30 mg/kg): 2 h
- AUC(0-inf) ([11]; 100 mg/kg): 5600 ng·h/mL
- Cmax ([11]; 100 mg/kg): 1600 ng/mL
- Tmax ([11]; 100 mg/kg): 2.7 h
- AUC(0-inf) ([11]; 300 mg/kg): 10000 ng·h/mL
- Cmax ([11]; 300 mg/kg): 2900 ng/mL
- Tmax ([11]; 300 mg/kg): 2.7 h
- effect on mean body weights [12]: nominal effect on mean body weights
- antitumor activity ([12]; D-tartrate salt, SCID mice): significant tumor regression at both doses; also recorded: Robust tumor growth inhibition
- H3K27 methyl mark in tumor samples [13]: robust H3K27 methyl mark reduction
- time over the predicted efficacious plasma levels [14]: ≥ 6 h
- LCC (lowest cytotoxic concentration), 11d proliferation WSU-DLCL2 (WSU-DLCL2 cells [15]): 208 nM and 208 ± 75 (n = 4) nM
- IC50 [16]: 94 ± 48 nM
